Key:
[1] = system: A-375; assay: Cytotoxicity against human A-375 cells assessed as reduction in cell viability incubated for 24 hrs by CCK-8 assay; type: functional, cell-based; conditions: A-375, 24 h
[2] = target: T1, Deoxyhypusine synthase (Homo sapiens, UniProt P49366); assay: Inhibition of DHPS (unknown origin ) incubated for 30 mins by NAD/NADH-Glow assay
T1 sequence (P49366 whole entry): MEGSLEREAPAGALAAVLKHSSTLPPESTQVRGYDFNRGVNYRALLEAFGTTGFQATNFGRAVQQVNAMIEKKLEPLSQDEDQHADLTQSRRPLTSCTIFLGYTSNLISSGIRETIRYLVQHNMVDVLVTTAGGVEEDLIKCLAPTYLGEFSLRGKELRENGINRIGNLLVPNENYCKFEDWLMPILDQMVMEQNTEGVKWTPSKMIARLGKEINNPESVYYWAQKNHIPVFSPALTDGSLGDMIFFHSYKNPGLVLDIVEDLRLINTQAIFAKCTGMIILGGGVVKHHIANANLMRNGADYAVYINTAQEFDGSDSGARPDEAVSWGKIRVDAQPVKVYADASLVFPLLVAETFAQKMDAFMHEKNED

[3] = system: SK-MEL-28; assay: Cytotoxicity against human SK-MEL-28 cells assessed as reduction in cell viability incubated for 24 hrs by CCK-8 assay; type: functional, cell-based; conditions: SK-MEL-28, 24 h
[4] = system: B16; assay: Cytotoxicity against mouse B16 cells assessed as reduction in cell viability incubated for 24 hrs by CCK-8 assay; type: functional, cell-based; conditions: B16, 24 h
[5] = (§1) Cytotoxicity against human HaCaT cells assessed as reduction in cell viability incubated for 24 hrs by CCK-8 assay; type: toxicity, cell-based; conditions: HaCaT cells
[6] = system: HaCaT; assay: as §1; type: toxicity, cell-based; conditions: hacat, 24 h

Structure (SMILES) | IC50 [1] [µM] | IC50 [2] [µM] | IC50 [3] [µM] | IC50 [4] [µM] | CC50 at 24 h [5] [µM] | CC50 [6]
COc1ccccc1Oc1c(N)nc(-c2cccc(Cl)c2)nc1Cl | 38.3 | 20 | 19.4 | 17.9 | > 80 | 
COc1ccccc1Oc1c(N)nc(-c2ccc(C)cc2)nc1Cl | > 80 | 59.1 |  | 17.4 | 6.3 | 
COc1ccccc1Oc1c(N)nc(-c2cccc(C)c2)nc1OCCO | 1.38 | 1.17 | 14.7 | 70.9 |  | 
COc1cccc(-c2nc(N)c(Oc3ccccc3OC)c(Cl)n2)c1 | 24.6 | 0.04 |  | 23.6 | 14 | 
COc1ccccc1Oc1c(N)nc(-c2ccc(F)cc2)nc1OCCO | 15.9 | 2.38 | 20.1 | 30.1 | 15.1 | 
COc1ccccc1Oc1c(N)nc(-c2ccc(Br)cc2)nc1OCCO | 10.3 | 11.8 | 4.4 | 11.8 |  | 
COc1ccccc1Oc1c(N)nc(-c2ccc(Cl)cc2)nc1Cl | 1.03 | 0.1 | 0.12 | 18.8 |  | 
COc1ccccc1Oc1c(N)nc(-c2ccccc2)nc1OCCO | > 80 | 53.7 | > 80 | 31.1 |  | 
COc1ccccc1Oc1c(N)nc(-c2ccccc2)nc1Cl | 7.22 | 0.53 | 3.14 | 4.61 |  | Not Active
COc1ccccc1Oc1c(N)nc(-c2cccc(Cl)c2)nc1OCCO | 30.2 | 4.42 | 4.17 | 5.01 |  | 
COc1ccccc1Oc1c(N)nc(-c2ccc(I)cc2)nc1OCCO |  | 2.29 |  | 19.6 |  | 
COc1ccc(-c2nc(N)c(Oc3ccccc3OC)c(Cl)n2)cc1 | > 80 | 18.2 |  | 47.8 | 8.2 | 
COc1ccccc1Oc1c(N)nc(-c2cccc(I)c2)nc1OCCO | 1.23 | 0.56 | 11.2 | 20.3 |  | 
COc1ccccc1Oc1c(N)nc(-c2cccc(F)c2)nc1OCCO | 8.53 | 0.33 | 3.21 | 20.9 |  | 
COc1ccccc1Oc1c(N)nc(-c2ccc(F)cc2)nc1Cl | 28.2 | 0.64 | 31.9 | 2.99 | 42.6 | 
COc1ccccc1Oc1c(N)nc(Cc2ccccc2)nc1Cl | 15.7 | 0.05 | 8.65 | 39.1 | 30.6 | 

— ChEMBL document CHEMBL5042482, “Novel Allosteric Inhibitors of Deoxyhypusine Synthase against Malignant Melanoma: Design, Synthesis, and Biological Evaluation” (J Med Chem, 2021)
